Values joined by “and” are separate entries in the source; they are usually repeats but may differ in a detail not shown here. Identical values can stand only once. ± gives the expanded uncertainty stated by the source.
O=C(C(F)(F)C(F)(F)F)C(F)(C(F)(F)F)C(F)(F)F [dodecafluoro-2-methylpentan-3-one]
Conditions | thermal conductivity
333.01 K, 108 kPa, Liquid, transient hot wire | 0.05128 ± 0.0011 W/m/K and 0.05126 ± 0.0011 W/m/K
333.21 K, 69192 kPa, Liquid, transient hot wire | 0.07561 ± 0.0015 W/m/K
333.22 K, 69183 kPa, Liquid, transient hot wire | 0.07544 ± 0.0015 W/m/K
333.25 K, 28069 kPa, Liquid, transient hot wire | 0.06356 ± 0.0013 W/m/K
333.26 K, 28068 kPa, Liquid, transient hot wire | 0.06353 ± 0.0013 W/m/K
333.28 K, 57706 kPa, Liquid, transient hot wire | 0.07259 ± 0.0015 W/m/K
333.29 K, 57707 kPa, Liquid, transient hot wire | 0.07259 ± 0.0015 W/m/K
333.34 K, 3947 kPa, Liquid, transient hot wire | 0.05333 ± 0.0011 W/m/K
333.35 K, 3945 kPa, Liquid, transient hot wire | 0.0533 ± 0.0011 W/m/K
333.35 K, 20435 kPa, Liquid, transient hot wire | 0.06088 ± 0.0013 W/m/K
333.36 K, 20438 kPa, Liquid, transient hot wire | 0.06085 ± 0.0013 W/m/K
333.37 K, 45549 kPa, Liquid, transient hot wire | 0.06924 ± 0.0014 W/m/K
333.39 K, 45558 kPa, Liquid, transient hot wire | 0.06943 ± 0.0014 W/m/K
333.46 K, 14103 kPa, Liquid, transient hot wire | 0.05826 ± 0.0012 W/m/K
333.47 K, 14107 kPa, Liquid, transient hot wire | 0.05827 ± 0.0012 W/m/K
333.47 K, 36549 kPa, Liquid, transient hot wire | 0.06656 ± 0.0014 W/m/K
333.48 K, 36550 kPa, Liquid, transient hot wire | 0.0665 ± 0.0014 W/m/K
333.58 K, 8568 kPa, Liquid, transient hot wire | 0.0556 ± 0.0011 W/m/K
333.58 K, 8574 kPa, Liquid, transient hot wire | 0.05562 ± 0.0011 W/m/K
333.67 K, 231 kPa, Liquid, transient hot wire | 0.05113 ± 0.0011 W/m/K
333.67 K, 232 kPa, Liquid, transient hot wire | 0.05114 ± 0.0011 W/m/K
333.7 K, 108 kPa, Liquid, transient hot wire | 0.05109 ± 0.0011 W/m/K
333.71 K, 108 kPa, Liquid, transient hot wire | 0.051 ± 0.0011 W/m/K
341.75 K, 117 kPa, Gas, transient hot wire | 0.01428 ± 0.00089 W/m/K
341.75 K, 153 kPa, Gas, transient hot wire | 0.01409 ± 0.00088 W/m/K
341.8 K, 117 kPa, Gas, transient hot wire | 0.01432 ± 0.00089 W/m/K
341.81 K, 154 kPa, Gas, transient hot wire | 0.01416 ± 0.00088 W/m/K
341.86 K, 61 kPa, Gas, transient hot wire | 0.01468 ± 0.00091 W/m/K
341.91 K, 62 kPa, Gas, transient hot wire | 0.01468 ± 0.00091 W/m/K
342.04 K, 153 kPa, Gas, transient hot wire | 0.01411 ± 0.00088 W/m/K
342.05 K, 117 kPa, Gas, transient hot wire | 0.01436 ± 0.00089 W/m/K
342.11 K, 116 kPa, Gas, transient hot wire | 0.01434 ± 0.00089 W/m/K
342.11 K, 153 kPa, Gas, transient hot wire | 0.0142 ± 0.00089 W/m/K
342.19 K, 61 kPa, Gas, transient hot wire | 0.01474 ± 0.00092 W/m/K
342.23 K, 61 kPa, Gas, transient hot wire | 0.01466 ± 0.00091 W/m/K
342.38 K, 153 kPa, Gas, transient hot wire | 0.0142 ± 0.00091 W/m/K
342.39 K, 115 kPa, Gas, transient hot wire | 0.01437 ± 0.00089 W/m/K
342.44 K, 116 kPa, Gas, transient hot wire | 0.01444 ± 0.0009 W/m/K
342.44 K, 153 kPa, Gas, transient hot wire | 0.01429 ± 0.00092 W/m/K
342.56 K, 60 kPa, Gas, transient hot wire | 0.01477 ± 0.00092 W/m/K
342.59 K, 61 kPa, Gas, transient hot wire | 0.01463 ± 0.00091 W/m/K
342.74 K, 153 kPa, Gas, transient hot wire | 0.01422 ± 0.00093 W/m/K
342.76 K, 115 kPa, Gas, transient hot wire | 0.0144 ± 0.0009 W/m/K
342.8 K, 153 kPa, Gas, transient hot wire | 0.01428 ± 0.00093 W/m/K
342.81 K, 116 kPa, Gas, transient hot wire | 0.01448 ± 0.0009 W/m/K
342.95 K, 60 kPa, Gas, transient hot wire | 0.01472 ± 0.00091 W/m/K
342.98 K, 61 kPa, Gas, transient hot wire | 0.01475 ± 0.00092 W/m/K
343.11 K, 153 kPa, Gas, transient hot wire | 0.01428 ± 0.00089 W/m/K
343.15 K, 116 kPa, Gas, transient hot wire | 0.01455 ± 0.0009 W/m/K
343.18 K, 153 kPa, Gas, transient hot wire | 0.01436 ± 0.00089 W/m/K
343.2 K, 116 kPa, Gas, transient hot wire | 0.0145 ± 0.0009 W/m/K
343.36 K, 60 kPa, Gas, transient hot wire | 0.0147 ± 0.00092 W/m/K
343.39 K, 61 kPa, Gas, transient hot wire | 0.01474 ± 0.00092 W/m/K
343.88 K, 192 kPa, Gas, hot wire | 0.01563 ± 0.00078 W/m/K
343.89 K, 192 kPa, Gas, hot wire | 0.01557 ± 0.00076 W/m/K
343.9 K, 170 kPa, Gas, hot wire | 0.01524 ± 0.00072 W/m/K and 0.0152 ± 0.00072 W/m/K
343.91 K, 134 kPa, Gas, hot wire | 0.01511 ± 0.00072 W/m/K and 0.01509 ± 0.00072 W/m/K
343.94 K, 82 kPa, Gas, hot wire | 0.0148 ± 0.0007 W/m/K and 0.01481 ± 0.0007 W/m/K
343.99 K, 26 kPa, Gas, hot wire | 0.01441 ± 0.00068 W/m/K
344 K, 26 kPa, Gas, hot wire | 0.01439 ± 0.00068 W/m/K
344.02 K, 192 kPa, Gas, hot wire | 0.01569 ± 0.00078 W/m/K
344.03 K, 192 kPa, Gas, hot wire | 0.01571 ± 0.00078 W/m/K
344.04 K, 170 kPa, Gas, hot wire | 0.01532 ± 0.00073 W/m/K
344.06 K, 134 kPa, Gas, hot wire | 0.01505 ± 0.00071 W/m/K
344.07 K, 134 kPa, Gas, hot wire | 0.01503 ± 0.00071 W/m/K
344.1 K, 82 kPa, Gas, hot wire | 0.01476 ± 0.0007 W/m/K
344.1 K, 83 kPa, Gas, hot wire | 0.01479 ± 0.0007 W/m/K
344.14 K, 26 kPa, Gas, hot wire | 0.01446 ± 0.00068 W/m/K and 0.01445 ± 0.00068 W/m/K
344.17 K, 191 kPa, Gas, hot wire | 0.01575 ± 0.00078 W/m/K and 0.01573 ± 0.00078 W/m/K
344.19 K, 169 kPa, Gas, hot wire | 0.01545 ± 0.00074 W/m/K and 0.01542 ± 0.00074 W/m/K
344.21 K, 133 kPa, Gas, hot wire | 0.01513 ± 0.00072 W/m/K
344.25 K, 83 kPa, Gas, hot wire | 0.0148 ± 0.0007 W/m/K
344.26 K, 83 kPa, Gas, hot wire | 0.01479 ± 0.0007 W/m/K
344.31 K, 26 kPa, Gas, hot wire | 0.01448 ± 0.00068 W/m/K and 0.01449 ± 0.00068 W/m/K
344.31 K, 191 kPa, Gas, hot wire | 0.01589 ± 0.00079 W/m/K
344.32 K, 191 kPa, Gas, hot wire | 0.01586 ± 0.00079 W/m/K
344.35 K, 169 kPa, Gas, hot wire | 0.01551 ± 0.00074 W/m/K and 0.01555 ± 0.00074 W/m/K
344.38 K, 132 kPa, Gas, hot wire | 0.01516 ± 0.00072 W/m/K
344.38 K, 133 kPa, Gas, hot wire | 0.01519 ± 0.00072 W/m/K
344.43 K, 83 kPa, Gas, hot wire | 0.0148 ± 0.0007 W/m/K
344.44 K, 83 kPa, Gas, hot wire | 0.01478 ± 0.0007 W/m/K
344.47 K, 191 kPa, Gas, hot wire | 0.01601 ± 0.0008 W/m/K and 0.01602 ± 0.0008 W/m/K
344.49 K, 26 kPa, Gas, hot wire | 0.01446 ± 0.00068 W/m/K and 0.01447 ± 0.00068 W/m/K
344.51 K, 169 kPa, Gas, hot wire | 0.01563 ± 0.00075 W/m/K
